Reference: patent US10532986B2, “Cyclic compound acting as PDE4 inhibitor” (MEDSHINE DISCOVERY INC., priority 2016, dated 2020)

Molecular target: T1, Recombinant human PDE4B (Homo sapiens, UniProt Q07343)
T1 construct: amino acid 305-end; GST (N); made in house; host or cells: Sf9 insect cells (baculovirus)
Experiment: Inhibitory activity of the compounds against PDE 4B (fluorescence polarization, Transcreener AMP2/GMP2)
Format: biochemical
Settings: recombinant human PDE4B (aa 305-end, GST tag); 1 μM cAMP; 1 hour at room temperature
Procedure: Inhibitory activity of the compounds against PDE 4B
The assay is based on the fluorescence polarization measuring AMP/GMP production as a result of the enzyme activity by displacement of Tracer binding to the AMP/GMP antibody.
10 mM Tris-HCl (pH 7.5), 5 mM MgCl2, 0.01% Brij 35, 1 mM DTT and 1% DMSO.
Recombinant human PDE4B (Gene accession number: NM_002600; amino acid 305-end) was expressed by baculovirus in Sf9 insect cells using an N-terminal GST tag. MW=78 kDa.
Transcreener® AMP^2/GMP^2 antibody and AMP^2/GMP^2 AlexaFluor 633 tracer
i) Recombinant human PDE4B and the enzyme substrate (1 μM cAMP) were dissolved in the newly-prepared buffer solution, respectively.
ii) The PDE4B buffer solution defined as above was transferred into the reaction wells.
iii) The compound which was dissolved in 100% DMSO was added to the reaction wells of the PDE4B buffer solution by Acoustic technology (Echo550; nanoliter range) and incubated at room temperature for 10 minutes.
iv) The enzymatic buffer solution was then added to the reaction wells defined as above to initiate the reaction.
v) The reaction was incubated at room temperature for 1 hour.
vi) The reaction was terminated by adding detecting mixture (Transcreener® AMP^2/GMP^2 antibody and AMP^2/GMP^2 AlexaFluor 633 tracer) and incubated for 90 minutes with gentle mixing. The measurement range of fluorescence polarization is Ex/Em=620/688.
The fluorescence polarization signal was converted into nM based on the AMP/GMP standard curve and the percent enzyme activity relative to DMSO calculated by Excel. GraphPad Prism was used to plot the curves (Drawing Medicine Icon)

T1 sequence (Q07343 305-736 limits assumed): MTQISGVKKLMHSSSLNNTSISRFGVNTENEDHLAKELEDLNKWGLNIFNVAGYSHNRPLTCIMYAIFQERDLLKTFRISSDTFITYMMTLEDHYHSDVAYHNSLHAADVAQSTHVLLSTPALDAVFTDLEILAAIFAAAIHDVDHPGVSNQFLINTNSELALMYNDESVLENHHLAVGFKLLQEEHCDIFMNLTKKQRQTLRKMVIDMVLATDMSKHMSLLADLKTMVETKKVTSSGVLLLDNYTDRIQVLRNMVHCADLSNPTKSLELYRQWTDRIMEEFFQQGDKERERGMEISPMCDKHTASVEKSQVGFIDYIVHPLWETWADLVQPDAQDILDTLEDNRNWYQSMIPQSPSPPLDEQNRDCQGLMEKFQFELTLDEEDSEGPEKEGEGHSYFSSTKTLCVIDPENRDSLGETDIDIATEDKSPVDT

| IC50 [nM] | Structure (SMILES) |
| --- | --- |
| 4.28 | CCOc1cc([C@@H](CS(C)(=O)=O)n2c(=O)n(CCO)c3cc(C(F)(F)F)ccc32)ccc1OC [WX056] |
| 99.6 | CCOc1cc([C@@H](CS(C)(=O)=O)n2c(=O)n(C)c3cc(F)cc(F)c32)ccc1OC [WX057] |
| 8.46 | CCOc1cc([C@@H](CS(C)(=O)=O)n2c(=O)n(CC#N)c3cc(F)cc(F)c32)ccc1OC [WX058] |
| 68.3 | CCOc1cc([C@@H](CS(C)(=O)=O)n2c(=O)n(CCO)c3cc(F)cc(F)c32)ccc1OC [WX059] |
| 34.4 | CCOc1cc([C@@H](CS(C)(=O)=O)n2c(=O)n(Cc3ccccc3F)c3cc(C(F)(F)F)cc(F)c32)ccc1OC [WX060] |
| 39 | CCOc1cc([C@@H](CS(C)(=O)=O)n2c(=O)n(CC(F)F)c3c(Cl)cccc32)ccc1OC [WX061] |
| 54.9 | CCOc1cc([C@@H](CS(C)(=O)=O)n2c(=O)n(CC(F)(F)F)c3c(Cl)cccc32)ccc1OC [WX062] |
| 20.8 | CCOc1cc(C(CS(C)(=O)=O)n2c(=O)n(CCS(C)(=O)=O)c3cc(Br)ccc32)ccc1OC (stereo not shown) [WX063] |
| 0.91 | CCOc1cc([C@@H](CS(C)(=O)=O)n2c(=O)n(Cc3ccccc3F)c3cc(Br)ccc32)ccc1OC [WX064] |
| 1.43 | CCOc1cc([C@@H](CS(C)(=O)=O)n2c(=O)n(Cc3cccc(F)c3)c3cc(Br)ccc32)ccc1OC [WX065] |
| 1.54 | CCOc1cc([C@@H](CS(C)(=O)=O)n2c(=O)n(Cc3ccc(F)cc3)c3cc(Br)ccc32)ccc1OC [WX066] |
| 10.1 | CCOc1cc([C@@H](CS(C)(=O)=O)n2c(=O)n(Cc3ccccc3F)c3ccccc32)ccc1OC [WX067] |
| 0.707 | CCOc1cc([C@@H](CS(C)(=O)=O)n2c(=O)n(C)c3cc(-c4ccccc4F)ccc32)ccc1OC [WX068] |
| 0.477 | CCOc1cc([C@@H](CS(C)(=O)=O)n2c(=O)n(CC)c3cc(-c4ccccc4F)ccc32)ccc1OC [WX069] |
| 1.25 | CCOc1cc([C@@H](CS(C)(=O)=O)n2c(=O)n(C(C)C)c3cc(-c4ccccc4F)ccc32)ccc1OC [WX070] |
| < 0.5 | CCOc1cc([C@@H](CS(C)(=O)=O)n2c(=O)n(CC#N)c3cc(-c4ccccc4F)ccc32)ccc1OC [WX071] |
| 14.8 | CCOC(=O)c1ccc2c(c1)n(CC(F)F)c(=O)n2[C@H](CS(C)(=O)=O)c1ccc(OC)c(OCC)c1 [WX072] |
| 31.8 | CCOC(=O)c1ccc2c(c1)n(CC(F)(F)F)c(=O)n2[C@H](CS(C)(=O)=O)c1ccc(OC)c(OCC)c1 [WX073] |
| 10.2 | CCOC(=O)c1ccc2c(c1)n(C)c(=O)n2[C@H](CS(C)(=O)=O)c1ccc(OC)c(OCC)c1 [WX074] |
| 0.68 | CCOc1cc(C(CS(C)(=O)=O)n2c(=O)[nH]c3cc(-c4ccccc4F)ccc32)ccc1OC(F)F (stereo not shown) [WX075] |
| 21.8 | COc1ccc(C(CS(C)(=O)=O)n2c(=O)[nH]c3cc(-c4ccccc4F)ccc32)cc1 (stereo not shown) [WX076] |
| 46.8 | CCOc1cc(C(CS(C)(=O)=O)n2c(=O)oc3cc(Br)ccc32)ccc1OC (stereo not shown) [WX077] |

| IC50 [nM] | Structure (SMILES) |
| --- | --- |
| 0.822 | CCOc1cc([C@@H](CS(C)(=O)=O)n2c(=O)[nH]c3c(-c4cnn(C)c4)cccc32)ccc1OC [WX078] |
| 2.53 | CCOc1cc([C@@H](CS(C)(=O)=O)n2c(=O)[nH]c3c(C(C)C)cccc32)ccc1OC [WX079] |
| 1.03 | CCOc1cc([C@@H](CS(C)(=O)=O)n2c(=O)[nH]c3c(C4=CCOCC4)cccc32)ccc1OC [WX080] |
| 1.38 | CCOc1cc([C@@H](CS(C)(=O)=O)n2c(=O)[nH]c3c(C4CCOCC4)cccc32)ccc1OC [WX081] |
| < 0.5 | CCOc1cc([C@@H](CS(C)(=O)=O)n2c(=O)[nH]c3c(-c4ccccc4OC)cccc32)ccc1OC [WX082] |
| < 0.5 | CCOc1cc([C@@H](CS(C)(=O)=O)n2c(=O)[nH]c3c(-c4ccccc4C)cccc32)ccc1OC [WX083] |
| 18.1 | CCOc1cc([C@@H](CS(C)(=O)=O)n2c(=O)[nH]c3c(-n4cccn4)cccc32)ccc1OC [WX084] |
| 5.64 | CCOc1cc([C@@H](CS(C)(=O)=O)n2c(=O)[nH]c3c(C(=O)N4CCCC4)cccc32)ccc1OC [WX085] |
| 36.2 | CCOc1cc([C@@H](CS(C)(=O)=O)n2c(=O)[nH]c3c(C(C)=O)cccc32)ccc1OC [WX086] |
| 1.29 | CCOc1cc([C@@H](CS(C)(=O)=O)n2c(=O)[nH]c3c(-c4ccccc4F)cccc32)ccc1OC [WX087] |
| 2.4 | CCOc1cc([C@@H](CS(C)(=O)=O)n2c(=O)[nH]c3c(-c4cccc(F)c4)cccc32)ccc1OC [WX088] |
| 2.52 | CCOc1cc([C@@H](CS(C)(=O)=O)n2c(=O)[nH]c3c(-c4ccc(F)cc4)cccc32)ccc1OC [WX089] |
| 0.341 | CCOc1cc([C@@H](CS(C)(=O)=O)n2c(=O)[nH]c3c(-c4ccccc4)cccc32)ccc1OC [WX090] |
| 3.98 | CCOc1cc([C@@H](CS(C)(=O)=O)n2c(=O)[nH]c3c(C4CC4)cccc32)ccc1OC [WX091] |
| 2.15 | C=C(C)c1cccc2c1[nH]c(=O)n2[C@H](CS(C)(=O)=O)c1ccc(OC)c(OCC)c1 [WX092] |
| 1.25 | CCOc1cc([C@@H](CS(C)(=O)=O)n2c(=O)[nH]c3c(-c4cccs4)cccc32)ccc1OC [WX093] |
| < 0.5 | CCOc1cc([C@@H](CS(C)(=O)=O)n2c(=O)[nH]c3c(Cc4ccccc4F)cccc32)ccc1OC [WX094] |
| 6.58 | CCOc1cc([C@@H](CS(C)(=O)=O)n2c(=O)[nH]c3c(-c4nccs4)cccc32)ccc1OC [WX095] |
| 7.3 | CCOc1cc([C@@H](CS(C)(=O)=O)n2c(=O)[nH]c3c(-c4ncc(F)cn4)cccc32)ccc1OC [WX096] |
| 5.04 | CCOc1cc([C@@H](CS(C)(=O)=O)n2c(=O)[nH]c3c(-c4ncccc4F)cccc32)ccc1OC [WX097] |
| 18.1 | CCOC(=O)c1cccc2c1[nH]c(=O)n2[C@H](CS(C)(=O)=O)c1ccc(OC)c(OCC)c1 [WX098] |
